Experiments:
PP2A = molecular target: T1, PP2A (Homo sapiens, UniProt P67775); test: PP2A phosphatase activity assay; type: cell-based; conditions: cell lysate from SKOV-3 cells, 2 h treatment
T1 construct: endogenous in cells; host or cells: SKOV-3 ovarian cancer cells (lysate supernatant, assayed with the Millipore PP2A Phosphatase Assay Kit)
Procedure: Ovarian cancer cells were grown to 80% confluence in 100 mm dishes and treated with LB100 as indicated and prepared as described previously (Wei, D. et al. 2013). Following treatment for 2 h, cells were washed twice with cold PBS (pH7.4) and lysed in lysis buffer (20 mmol/L imidazole-HCL, 2 mmol/L EDTA, 2 mmol/L EGTA, pH 7.0) supplemented with protease inhibitors (Roche) for 30 minutes on ice. Cell lysates were sonicated for 10 s then centrifuged at 2,000×g for 5 min. Supernatants were assayed with the PP2A Phosphatase Assay Kit (Millipore, Billerica, Mass.) according to the manufacturer's instructions. Experiments were performed in triplicate, and the data are presented as a percent mean of relative PP2A activity compared to control ±SD.

[1] = system: OVCAR-8 PP2Ac shRNA-expressing cells; test: Cell viability (MTT) assay, OVCAR-8 PP2Ac shRNA; type: cell-based, human; conditions: Homo sapiens; OVCAR-8 PP2Ac shRNA (knockdown)
Procedure: Cell survival was measured by the 3-(4,5-dimethylthiazol-2-yl)-2,5-diphenyltetrazolium bromide (MTT, Invitrogen) assay. Cells were seeded at a density of 5,000 cells per well in 96-well plates and incubated at 37° C. in humidified 5% CO2 for 24 hours. The 50% inhibitory concentration (IC50) values were defined as the drug concentrations required to reduce cellular proliferation to 50% of the untreated control well. […] All MTT assays were carried out according to the manufacturer's instructions (Molecular Probes, Eugen, Oreg.). Absorbance values were determined at […] on a Spectra Max 250 spectrophotometer (Molecular Devices, Sunnyvale, Calif.). All MTT assays were performed in triplicate. […] Cells were treated with both drugs for 72 h. Cell viability was analyzed via the MTT assay as described above. Experiments were performed in triplicate, and the data are presented as a percent mean±SD.
To stably knockdown expression of PP2AC, a pLKO.1-puro plasmid-based […] shRNA targeting the sequence: […] (clone ID:TRCN0000002483, Sigma-Aldrich) was employed (PP2AC-shRNA). Additionally, a non-targeting shRNA plasmid (NT-shRNA) that targets no known human sequence was utilized as a control. […]

[2] = system: PEO4 ovarian cancer cell line; test: MTT cytotoxicity assay, PEO4; type: cell-based, human; conditions: Homo sapiens, PEO4, read-out: IC50, viability of ovarian cancer cell line
Procedure: SKOV-3 ovarian cancer cells were purchased from American Type Culture Collection (ATCC) (Manassas, Va.). SKOV-3 cells were cultured in McCoy's 5A medium (ATCC, Manassas, Va.) supplemented with 10% fetal bovine serum and 100 units/mL penicillin G sodium, 100 ug/mL streptomycin sulfate, and 292 μg/ml, L-glutamine (BioWhittaker, Wakersville, Md.). Luciferase-expressing cells were generated by infecting SKOV-3 cells with pCLNCX-luciferase retrovirus (SKOV-3-Luc) as previously reported (Wei, B. R. et al. 2009). Human OVCAR-8 ovarian cancer cells were provided by the National Cancer Institute (part of the NCI-60 collection). The PEO1, PEO4, and PEO6 ovarian cancer cell lines have previously been characterized (Langdon, S. P. et al. 1988) and were kindly provided by Dr. Ian Goldlust (National Center for Advancing Translational Sciences, Shady Grove, Md.). […]
Cell survival was measured by the 3-(4,5-dimethylthiazol-2-yl)-2,5-diphenyltetrazolium bromide (MTT, Invitrogen) assay. […] Absorbance values were determined at […] on a Spectra Max 250 spectrophotometer (Molecular Devices, Sunnyvale, Calif.). […] Cell viability was analyzed via the MTT assay as described above. […]

[3] = system: SKOV-3/f-Luc intraperitoneal xenografts; test: In vivo intraperitoneal ovarian cancer model; parameters: species or system mouse
Procedure: Five- to seven-week-old female nude athymic mice (nu/nu) were obtained from NCI (Frederick, Md.), maintained in accredited animal facilities and used as stipulated by the U.S. Public Health Service Policy on Humane Care and Use of Laboratory Animals, in accordance with institutional reviews (http://oacu.odnih.gov). 10^6 SKOV-3/f-Luc cells were suspended in 100 μL PBS and injected into the intraperitoneal (i.p.) cavity. […] Following tumor inoculation, mice were dosed on days 4, 6, 8, 10, 12 and 14. Dose and treatment schedule were established based on the activity of each agent reported in previous studies (Wei, D. et al. 2013; Lu, J. et al. 2009; Mabuchi, S. et al. 2007). […] Tumor growth was measured twice a week via bioluminescence imaging (BLI) as previously described (Bakhsheshian, J. et al. 2013). D-Luciferin (150 mg/kg, 3 mg/100 μL PBS) was administered via I.P. injection. Relative intensity of the BLI signal for each mouse was calculated by dividing the total luminescence for each session by the total luminescence measured on day 1 of treatment. Mice were continuously observed until indicated euthanasia endpoints (e.g. significant weight loss, ascites). Toxicity of the treatment regimens was assessed by the degree of weight loss and the overall health status was continuously monitored by a veterinarian on staff. […] After 4 h, mice were euthanized and tumors were dissected from the intraperitoneal cavity, snap-frozen in liquid nitrogen, and lysed as described above.
Tumors were established in nude athymic female mice via i.p. injection of SKOV-3 cells transfected with firefly luciferase. […] Following the final treatment, mice were observed until pre-determined health concerns necessitated euthanization. Dose and treatment schedules were determined from biologic profiles of each agent determined in previous studies (Wei, D. et al. 2013; Lu, J. et al. 2009; Mabuchi, S. et al. 2009) and disease progression was monitored by BLI.

T1 sequence (P67775 whole entry): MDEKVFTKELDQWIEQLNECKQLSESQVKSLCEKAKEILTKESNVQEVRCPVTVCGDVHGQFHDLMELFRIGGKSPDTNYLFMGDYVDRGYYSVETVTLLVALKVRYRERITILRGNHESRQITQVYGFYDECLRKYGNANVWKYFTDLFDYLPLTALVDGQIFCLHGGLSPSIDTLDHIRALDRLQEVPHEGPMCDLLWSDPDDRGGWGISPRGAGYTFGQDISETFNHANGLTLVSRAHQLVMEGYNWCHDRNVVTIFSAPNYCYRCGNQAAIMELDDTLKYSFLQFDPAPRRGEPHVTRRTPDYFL
T1 sequence (P30153 2-589 partner limits assumed): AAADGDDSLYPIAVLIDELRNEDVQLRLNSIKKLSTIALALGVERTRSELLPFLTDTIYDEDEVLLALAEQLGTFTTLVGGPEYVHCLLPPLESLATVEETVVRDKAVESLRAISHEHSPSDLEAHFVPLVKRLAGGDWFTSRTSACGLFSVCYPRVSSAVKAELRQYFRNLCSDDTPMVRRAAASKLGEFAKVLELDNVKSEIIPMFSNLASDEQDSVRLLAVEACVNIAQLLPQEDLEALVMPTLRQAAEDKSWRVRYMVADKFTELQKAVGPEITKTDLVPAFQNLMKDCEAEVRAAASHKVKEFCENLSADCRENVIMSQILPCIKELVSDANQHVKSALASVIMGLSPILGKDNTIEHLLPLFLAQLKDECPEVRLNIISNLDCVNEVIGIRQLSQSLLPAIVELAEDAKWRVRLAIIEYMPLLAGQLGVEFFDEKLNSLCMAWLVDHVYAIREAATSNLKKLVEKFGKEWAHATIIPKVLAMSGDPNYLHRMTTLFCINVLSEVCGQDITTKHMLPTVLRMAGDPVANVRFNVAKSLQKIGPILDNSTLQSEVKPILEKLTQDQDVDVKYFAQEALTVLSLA

## CN1CCN(C(=O)C2C(C(=O)O)[C@H]3CC[C@@H]2O3)CC1 (stereo partly drawn) [LB100]
PP2A
  PP2A enzymatic function: concentration-dependent decrease
[1]
  IC50: 3.9 ± 0.9 µM
[2]
  IC50: 5 ± 0.6 µM
[3]; LB100 alone 1.5 mg/kg i.p.
  day by which massive ascites developed, necessitating euthanasia: ≤ 25 days
  tumor growth as assessed by BLI: did not alter tumor growth
[3]; day 25, each drug 1.5 mg/kg i.p., 6 doses every other day, LB100 1 h before cisplatin in combination
  relative intensity of BLI signal (vs day 1 of treatment): 12.4±6.7

From patent US20170136008A1, “OXABICYCLOHEPTANES AND OXABICYCLOHEPTENES FOR THE TREATMENT OF OVARIAN CANCER” (priority 2014, published 2017)
